In patent US8586505B2 (SDS Biotech K. K., priority 2009, dated 2013):

What was measured:
Type in all cases: in vivo
Phytophthora infestans = test: whole plant or invertebrate; conditions: in Solanum lycopersicum, 96 h, read-out: Determination of control effect (preventive value)
[1] = test system: Pseudoperonospora cubensis; test: Test of examining control effect on Pseudoperonospora cubensis (potted cucumber plants); conditions: 96 h, 10% wettable powder adjusted to 125 ppm, 15 ml/pot sprayed on potted cucumber plants one day before spray inoculation, assessed after 1 day wet chamber and 3 days greenhouse, read-out: Determination of control effect (preventive value) on Pseudoperonospora cubensis
Experimental: (§1) Calculation of Preventive Value: Preventive value={(untreated lesion area rate−treated lesion area rate)/untreated lesion area rate}×100
(§2) Using the thus calculated preventive value, the control effect of each compound was determined in accordance with the following standards.
(§3) High control effect: 100%≧preventive value≧60%
(§4) Low control effect: 60%>preventive value≧0%
Using a spray gun, an agent solution prepared by adjusting a 10% wettable powder of each sample compound to 125 ppm (hereinafter referred to as a “sample agent solution”) was sprayed to potted cucumber plants (variety: Sagamihanjiro, 2.5 leave stage) in a concentration of 15 ml/pot. One day after the spraying, a conidial suspension of Pseudoperonospora cubensis (conidial concentration: 1.0×10^4 cells/ml) was applied to the plants by spray inoculation. After completion of the inoculation, the plants were left at 21° C. under wet chamber conditions for 1 day, and were then left in a greenhouse for 3 days, so that they were fully infected with the aforementioned disease. Thereafter, the disease level on each leaf was compared with that on an untreated leaf, and the control effect of each compound was determined in the same manner as in Example 3(1).

Sphaerotheca fuliginea = test: Test of examining control effect on Sphaerotheca fuliginea (potted cucumber plants); conditions: Podosphaera fuliginea, 336 h; 10% wettable powder adjusted to 125 ppm, 15 ml/pot sprayed on potted cucumber plants one day before spray inoculation; assessed after 14 days in greenhouse; read-out: Determination of control effect (preventive value) on Sphaerotheca fuliginea
Experimental: as §1, §2, §3, §4
Using a spray gun, an agent solution prepared by adjusting a 10% wettable powder of each sample compound to 125 ppm (hereinafter referred to as a “sample agent solution”) was sprayed to potted cucumber plants (variety: Sagamihanjiro, 2nd leave stage) in a concentration of 15 ml/pot. One day after the spraying, a conidial suspension of Sphaerotheca fuliginea (conidial concentration: 1.0×10^5 cells/ml) was applied to the plants by spray inoculation. The plants were left in a greenhouse for 14 days, so that they were fully infected with the aforementioned disease. Thereafter, the disease level on each leaf was compared with that on an untreated leaf, and the control effect of each compound was determined in the same manner as in Example 3(1).

Question: What does the source list for `C(#Cc1csc(Oc2ccccc2)n1)CCNc1ncnc2sccc12` [compound 83, 4-[4-(2-Phenoxythiazol-4-yl)-3-butynylamino]thieno[2,3-d]pyrimidine]?
Answer: pest or weed control at 125 ppm (Phytophthora infestans): 0 to 60%; pest or weed control at 125 µg/mL [1]: 60 to 100%; pest or weed control at 125 µg/mL (Sphaerotheca fuliginea): 60 to 100%

Question: `CN1C(=O)c2ccc(C#CCCNc3ncnc4sccc34)cc2C1=O` [compound 84] was tested. Which pest or weed control at 125 ppm (Phytophthora infestans) did it give?
Answer: 60 to 100%

Question: And the pest or weed control at 125 µg/mL [1]?
Answer: 60 to 100%

Question: What about the pest or weed control at 125 µg/mL (Sphaerotheca fuliginea) of the same molecule?
Answer: 0 to 60%

Question: Which pest or weed control at 125 ppm (Phytophthora infestans) does the source give for `COc1ccc2nc(C#CCCNc3ncnc4sccc34)sc2c1` [compound 85] here?
Answer: 60 to 100%

Question: What about the pest or weed control at 125 µg/mL [1] of the same molecule?
Answer: 60 to 100%

Question: What about the pest or weed control at 125 µg/mL (Sphaerotheca fuliginea) of the same molecule?
Answer: 60 to 100%

Question: `C#CCCNc1ncnc2ccccc12` [compound 86] was tested. Which pest or weed control at 125 ppm (Phytophthora infestans) did it give?
Answer: 0 to 60%

Question: What about the pest or weed control at 125 µg/mL [1] of the same molecule?
Answer: 60 to 100%

Question: And the pest or weed control at 125 µg/mL (Sphaerotheca fuliginea)?
Answer: 60 to 100%

Question: `C[Si](C)(C)C#CCCNc1ncnc2ccccc12` [compound 87] was tested. Which pest or weed control at 125 ppm (Phytophthora infestans) did it give?
Answer: 60 to 100%

Question: And the pest or weed control at 125 µg/mL [1]?
Answer: 60 to 100%

Question: And the pest or weed control at 125 µg/mL (Sphaerotheca fuliginea)?
Answer: 60 to 100%

Question: What does the source list for `C(#CC1CC1)CCNc1ncnc2ccccc12` [compound 90]?
Answer: pest or weed control at 125 ppm (Phytophthora infestans): 0 to 60%; pest or weed control at 125 µg/mL [1]: 60 to 100%; pest or weed control at 125 µg/mL (Sphaerotheca fuliginea): 60 to 100%

Question: What does the source list for `C(#CC1CCCCC1)CCNc1ncnc2ccccc12` [compound 91]?
Answer: pest or weed control at 125 ppm (Phytophthora infestans): 60 to 100%; pest or weed control at 125 µg/mL [1]: 60 to 100%; pest or weed control at 125 µg/mL (Sphaerotheca fuliginea): 60 to 100%

Question: With `C/C(C#N)=C/C#CCCNc1ncnc2ccccc12` [compound 93] as the molecule, how does the pest or weed control at 125 ppm (Phytophthora infestans) read?
Answer: 60 to 100%

Question: What about the pest or weed control at 125 µg/mL [1] of the same molecule?
Answer: 60 to 100%

Question: And the pest or weed control at 125 µg/mL (Sphaerotheca fuliginea)?
Answer: 60 to 100%

Question: `C(#CC1=CCCCC1)CCNc1ncnc2ccccc12` [compound 94] was tested. Which pest or weed control at 125 ppm (Phytophthora infestans) did it give?
Answer: 0 to 60%

Question: And the pest or weed control at 125 µg/mL [1]?
Answer: 60 to 100%

Question: And the pest or weed control at 125 µg/mL (Sphaerotheca fuliginea)?
Answer: 60 to 100%

Question: What does the source list for `Clc1ccccc1C#CCCNc1ncnc2ccccc12` [compound 97]?
Answer: pest or weed control at 125 ppm (Phytophthora infestans): 60 to 100%; pest or weed control at 125 µg/mL [1]: 60 to 100%; pest or weed control at 125 µg/mL (Sphaerotheca fuliginea): 60 to 100%

Question: For `Ic1ccc(C#CCCNc2ncnc3ccccc23)cc1` [compound 98], which pest or weed control at 125 ppm (Phytophthora infestans) is on record?
Answer: 0 to 60%

Question: What about the pest or weed control at 125 µg/mL [1] of the same molecule?
Answer: 60 to 100%

Question: What about the pest or weed control at 125 µg/mL (Sphaerotheca fuliginea) of the same molecule?
Answer: 60 to 100%

Question: For `FCc1ccccc1C#CCCNc1ncnc2ccccc12` [compound 99], which pest or weed control at 125 ppm (Phytophthora infestans) is on record?
Answer: 60 to 100%

Question: What about the pest or weed control at 125 µg/mL [1] of the same molecule?
Answer: 60 to 100%

Question: And the pest or weed control at 125 µg/mL (Sphaerotheca fuliginea)?
Answer: 60 to 100%

Question: What does the source list for `FC(F)c1ccccc1C#CCCNc1ncnc2ccccc12` [compound 100]?
Answer: pest or weed control at 125 ppm (Phytophthora infestans): 60 to 100%; pest or weed control at 125 µg/mL [1]: 60 to 100%; pest or weed control at 125 µg/mL (Sphaerotheca fuliginea): 60 to 100%

Question: With `FC(F)(F)c1ccccc1C#CCCNc1ncnc2ccccc12` [compound 101] as the molecule, how does the pest or weed control at 125 ppm (Phytophthora infestans) read?
Answer: 60 to 100%

Question: What about the pest or weed control at 125 µg/mL [1] of the same molecule?
Answer: 60 to 100%

Question: What about the pest or weed control at 125 µg/mL (Sphaerotheca fuliginea) of the same molecule?
Answer: 60 to 100%

Question: How did the pest or weed control at 125 ppm (Phytophthora infestans) turn out when `N#Cc1ccccc1C#CCCNc1ncnc2ccccc12` [compound 102] was run?
Answer: 60 to 100%

Question: What about the pest or weed control at 125 µg/mL [1] of the same molecule?
Answer: 60 to 100%

Question: What about the pest or weed control at 125 µg/mL (Sphaerotheca fuliginea) of the same molecule?
Answer: 60 to 100%

Question: With `CCc1ccccc1C#CCCNc1ncnc2ccccc12` [compound 103] as the molecule, how does the pest or weed control at 125 ppm (Phytophthora infestans) read?
Answer: 60 to 100%

Question: And the pest or weed control at 125 µg/mL [1]?
Answer: 60 to 100%

Question: What about the pest or weed control at 125 µg/mL (Sphaerotheca fuliginea) of the same molecule?
Answer: 60 to 100%

Question: Which pest or weed control at 125 ppm (Phytophthora infestans) does the source give for `CC(C)c1ccccc1C#CCCNc1ncnc2ccccc12` [compound 104] here?
Answer: 60 to 100%

Question: And the pest or weed control at 125 µg/mL [1]?
Answer: 60 to 100%

Question: What about the pest or weed control at 125 µg/mL (Sphaerotheca fuliginea) of the same molecule?
Answer: 60 to 100%

Question: How did the pest or weed control at 125 ppm (Phytophthora infestans) turn out when `C=Cc1ccc(C#CCCNc2ncnc3ccccc23)cc1` [compound 110] was run?
Answer: 60 to 100%

Question: And the pest or weed control at 125 µg/mL [1]?
Answer: 60 to 100%

Question: What about the pest or weed control at 125 µg/mL (Sphaerotheca fuliginea) of the same molecule?
Answer: 60 to 100%

Question: `C[Si](C)(C)c1ccc(C#CCCNc2ncnc3ccccc23)cc1` [compound 111] was tested. Which pest or weed control at 125 ppm (Phytophthora infestans) did it give?
Answer: 0 to 60%

Question: And the pest or weed control at 125 µg/mL [1]?
Answer: 60 to 100%

Question: What about the pest or weed control at 125 µg/mL (Sphaerotheca fuliginea) of the same molecule?
Answer: 60 to 100%

Question: How did the pest or weed control at 125 ppm (Phytophthora infestans) turn out when `C(#Cc1ccccc1-c1ccccc1)CCNc1ncnc2ccccc12` [compound 114] was run?
Answer: 0 to 60%

Question: And the pest or weed control at 125 µg/mL [1]?
Answer: 60 to 100%

Question: And the pest or weed control at 125 µg/mL (Sphaerotheca fuliginea)?
Answer: 60 to 100%
